# System: 453A melanoma cell line
# Test: Intracellular antibody staining and flow cytometry (Melan-A/MART-1, gp100/HMB45)
# Format: cell-based, human
# Conditions: 453A (BRAF M/WT, NRAS WT); 3 days; 17-AEP 1.00, CCT018159 10.00, PU-H71 0.30 μg/ml
# Procedure: (§1) Cells were fixed with 1% formaldehyde, permeabilized with 0.1% saponin, stained with monoclonal antibodies to melanocyte antigens. Antibodies were obtained with specificity for: MART-1 from Vector Labs (Burlingame, Calif.); gp100 HMB45 from DakoCytomation (Carpinteria, Calif.) and then visualized with goat anti-mouse FITC-conjugated secondary antibody from Invitrogen (Fredrick, Md.). The level of EGFP was determined by flow cytometry of unfixed cells that were washed and resuspended in 1×PBS.
# Cells were plated at a density of 1×10^5 in 1 ml of medium in a 24-well plate and cultured for varying times as indicated in results. […] After incubation, cells were collected by trypsinization and then evaluated by flow cytometry.
# as §1, with “Intracellular staining and flow cytometric analyses of cytoplasmic Melan-A/MART-1, and gp100 expression were performed as described previously. Cells” for “Cells”, “Melan-A/MART-1” for “MART-1”, “gp100/HMB45” for “gp100 HMB45”, “(Frederick,” for “(Fredrick,”, “cells” for “cells that were”, “1×PBS. […]” for “1×PBS.”
structure (smiles),measurement,value
CCc1cc(-c2n[nH]c(C)c2-c2ccc3c(c2)OCCO3)c(O)cc1O [CCT018159],"HMB45, level of induction relative to untreated control cells",3.38
same,"MART-1, level of induction relative to untreated control cells",3.29

# From patent US20140335050A1, “METHODS, COMPOSITIONS, AND KITS FOR THE TREATMENT OF CANCER” (The General Hospital Corporation, priority 2011, published 2014)
